What was measured:
[1] = system: AMPK; experiment: AMPK and ACC phosphorylation in cortical neurons; format: cell-based, mouse; settings: for effect on resveratrol-induced AMPK phosphorylation: cortical neurons, resveratrol 10 μM, 2 h
Description: FIG. 16A-F illustrates that resveratrol activates AMP kinase in cortical neurons through Lkb1 and CaMKKβ. (A) Cortical neuron cultures were established from E 13.5 Lkb1 flox/flox embryos and infected with lentivirus expressing Cre recombinase (FCIV-Cre) or GFP only (FUGW control). Lentiviral infection of cortical neurons was monitored by GFP fluorescence (A). […] Lkb1 flox/flox cortical neurons were infected with FUGW or FCIV-Cre and treated as indicated. AMPK or ACC was immunoprecipitated from neuronal lysates and western blots were probed with the respective phospho-specific antibodies. […] Lysates from AICAR treated cortical neurons is included as a positive control. (E, F) Embryonic cortical neurons were cultured from wild type and SIRT1-deficient littermates derived from SIRT1 heterozygous matings. […] Levels of total AMPK and ACC are shown in the bottom panels of C, D, E and F.
Cell culture and Reagents. Neuro2 cells obtained from ATCC were grown in MEM with 1.5 g/L sodium bicarbonate, 0.1 mM nonessential amino acids, 0.1 mM sodium pyruvate, 2 mM L-glutamine with 10% FCS. For differentiation, cells were switched to serum-starvation medium (containing 0.2% FCS). For neurite outgrowth measurements, experiments were done in quadruplicate and 100 neurites per well were randomly measured using the Metamorph software. Dorsal root ganglia sensory and cortical neurons were established from E13.5 mouse embryos, maintained in neurobasal medium supplemented with B27 (and NGF for DRG neurons) and infected with lentiviruses as described (Araki et al., 2004, Science 305:1010-1013; Hawley et al., 2005, Cell Metab 2:21-23). Resveratrol was a gift from Sirtris Pharmaceuticals (Cambridge Mass.) and AICAR was obtained from Toronto Research (North York, Canada). Splitomycin and Compound C were purchased from Biomol (Plymouth Meeting, Pa.) and Calbiochem (San Diego, Calif.). Sirtinol and nicotinamide were purchased from Sigma (Saint Louis, Mo.)
Plasmids and viruses. The dominant negative (dnAMPK) and constitutively active (caAMPK) plasmids were gifts from Russell Jones (University of Pennsylvania, Philadelphia Pa.), and pCXN-Cre was a gift of Inder Verma (Salk Institute, San Diego, Calif.). All constructs were subcloned into the lentiviral shuttle vector FCIV and verified by nucleotide sequence analysis. Viruses were prepared as previously described (Araki et al., 2004, Science 305:1010-1013). Protein and mRNA analysis. Immunoprecipitations and western blot analysis were performed by standard methods using antibodies directed against total AMPK, phosphorylated AMPK, total ACC or phosphorylated ACC that were obtained from Cell Signaling Technology (Beverley, Mass.). The phospho-AMPK antibody detects endogenous AMPK α1 and α2 when phosphorylated at threonine 172. The LKB1 antibody was purchased from Upstate (Lake Placid, N.Y.). Quantitative RT-PCR analysis was performed using Sybr-Green methodology on a model 7700 instrument (Applied Biosystems) as previously described (Araki et al., 2004, Science 305:1010-1013). Primer sequences were those used in previous studies (Motoshima, et al., 2006, J Physiol 574:63-71).
Resveratrol activation of AMPK in Neuro2a cells along with the crucial role of AMPK in promoting neurite outgrowth in these cells encouraged us to examine this pathway in primary neurons. We treated E13.5 mouse dorsal root ganglia (DRG) sensory and cortical neuron cultures with resveratrol (10 μM) or AICAR (1 mM). […]

[2] = system: DRG neuronal explant cultures; experiment: in vitro Wallerian degeneration assay, DRG explant neurite transection; format: cell-based, mouse
Protocol: To identify the mechanism of delayed axonal degeneration mediated by the Wlds protein, we employed an in-vitro Wallerian degeneration model. Primary DRG explant neurons were infected with lentivirus expressing the appropriate proteins, and axons were injured by either removal of the neuronal cell body (transection) or growth in vincristine (toxic).
Mouse DRG explants from E12.5 embryos were cultured in the presence of 1 nM nerve growth factor. Non-neuronal cells were removed from the cultures by adding 5-fluorouracil to the culture medium. Transection of neurites was performed at 10-20 DIV using an 18-gauge needle to remove the neuronal cell bodies. Incubation with β-nicotinamide adenine dinucleotide (Sigma) or Sirtinol (Calbiochem) was performed using conditions indicated in the text or figures.
Quantitative analysis of axonal degeneration was performed as previously described (Zhai, et al., Neuron 39:217-25, 2003). Briefly, the cultures were examined using phase contrast microscopy at the indicated times. Axons with a fragmented, non-refractile appearance were designated as “degenerated.” At each time point, at least 200 singly distinguishable axons were blindly scored from several randomly taken images of each culture. Each condition was tested in triplicate explants in each experiment. Results were obtained from 2-4 independent experiments for each condition. Statistical analysis was performed by Student's T test. For calculations of neurite-covered area, digitally captured images from quadruplicate samples of two independent experiments were analyzed using analysis 3.1 software (Soft Imaging System, Lakewood, Colo.).
Cell culture, in vitro axotomy, and quantification of axonal degeneration. Mouse DRG explants from E12.5 embryos were cultured in the DMEM containing 10% FCS and 1 nM nerve growth factor. Non-neuronal cells were removed from the cultures by adding 5-fluorouracil to the culture media. Transection of neurites was performed at 14-21 DIV using an 18-gauge needle to remove the neuronal cell bodies. Lentiviral expression vectors were generated. Lentiviral infection was performed 3-7 days prior to axonal transection for 24 hr. Quantitative analysis of neurite degeneration was performed.

Compound | effect on resveratrol-induced AMPK phosphorylation [1] | further results
NC(=O)c1cccnc1 [Nam, nicotinamide] | none of the SIRT inhibitors | neurite protection after transection ([2]; 1 mM applied for 24 hours before neurite transection): had no effect
CC(NC(=O)c1ccccc1/N=C/c1c(O)ccc2ccccc12)c1ccccc1 (centres unmarked) [Sirtinol] | none of the SIRT inhibitors | effect on NAD-dependent axonal protection (NDAP) ([2]; neurons cultured in 1 mM NAD, Sirtinol 100 μM, 3AB 20 mM or siRNA lentivirus, 12 to 72 hr after transection): effectively blocked NDAP
Oc1ccc(C=Cc2cc(O)cc(O)c2)cc1 [resveratrol] |  | phosphorylation of AMPK and ACC ([1]; E13.5 cortical neurons, 10 μM): stimulated phosphorylation of AMPK and ACC; axonal degradation after axotomy ([2]; 10~100 μM, treated prior to axotomy): decrease in axonal degradation that was comparable to that obtained using NAD
O=C1CCc2c(ccc3ccccc23)O1 [splitomycin] | none of the SIRT inhibitors | 
O=C(O)c1ccc2c3c1cccc3c(=O)n1c3ccccc3nc21 [STO 609] | did inhibit AMPK and ACC phosphorylation | 

Reference: US20160367497A1, “METHODS AND COMPOSITIONS FOR TREATING NEUROPATHIES” (Washington University, priority 2007, published 2016)
